Measured values: US20030013643A1, “Prevention and treatment of streptococcal and staphylococcal infection” (priority 2000, published 2003)

Columns and labels:
[1] = test system: GAS; test: GAS attachment to murine keratinocyte cell line PAM2.12 with exogenous hyaluronic acid; assay type: cell-based, Streptococcus pyogenes; details: control polysaccharide, concentration printed 1 /ml
Protocol: For bacterial adherence assays, keratinocytes were seeded at 10^5 cells per well in collagen-coated tissue culture wells (Nalge Nunc International, Naperville, Ill.), incubated for 3 days at 34° C. in 8% CO2, washed, and overlaid with medium containing 10^6 CFU of GAS per well. After incubation for 1 hour at 34° C. in 8% CO2 the keratinocyte monolayers were washed twice to remove nonadherent bacteria, then the number of cell-associated bacteria was determined by quantitative culture after releasing the keratinocytes with try spin and lysing them in sterile water, experiments testing the effects of exogenous hyaluronic acid on GAS adherence were performed using the mouse keratinocyte cell line, PAM 2.12 (Song, I. S. 2000, Exp. Dermatol. 9:42-52). Cells were seeded in collagen-coated tissue culture wells at 10^5 cells per well, cultured for 3 days at 37° C. in 5% CO2, then inoculated with 10^6 CFU of GAS per well in medium containing exogenous hyaluronic acid (from rooster comb, Sigma Chemicals, St. Louis, Mo.), no inhibitor, or a control polysaccharide, alginic acid, a high-molecular-weight polymer of mannuronic acid and guluronic acid (Protonal Durvillea Alginate, Pronova. Biopolymer, Inc., Portsmouth, N.H.). Cells were incubated for 45 minutes at 37° C. in 5% CO2, then processed for enumeration of adherent bacteria as described above. In experiments to test whether exogenous hyaluronic acid could promote dissociation of GAS attached to keratinocytes, GAS were allowed to attach to keratinocytes in the absence of inhibitor; after 45 minutes, the medium was removed and replaced with fresh medium containing hyaluronic acid, no inhibitor, or alginic acid. After 45 minutes of incubation, the number of adherent bacteria was enumerated as described above.
To investigate the specificity of the interaction between the GAS capsule and CD44 on epithelial cells, the ability of exogenous hyaluronic acid to compete with GAS for binding to murine keratinocytes was examined. Addition of exogenous hyaluronic acid to concentration 1 mg/ml[…], inhibited GAS attachment to the murine keratinocyte cell line PAM2.12 by >95% (P<0.03, FIG. 5). A concentration of 1 /ml alginic acid, another high molecular weight acidic polysaccharide, had no effect, supporting the hypothesis that adherence depends on a specific interaction between the GAS hyaluronic acid capsule and CD44 .
In addition to the 1 mg/ml concentration of hyaluronic acid, additional trials were performed as indicated above, with a range of concentrations of hyaluronic acid added to the cells. The concentrations tested included 4 mg/ml, 2 mg/ml, 1 mg/ml, 0.75 mg/ml, 0.5 mg/ml, 0.25 mg/ml and 0.1 mg/ml. The hyaluronic acid concentrations from 4 mg/ml to 0.25 mg/ml blocked GAS binding by greater than 70%. Hyaluronic acid concentrations from 4 mg/ml to 0.5 mg/ml blocked GAS binding by greater than 80% (FIG. 6).

[2] = test system: wild-type GAS, strain 950771; test: GAS translocation through polarized human keratinocyte monolayers; assay type: cell-based, Streptococcus pyogenes; details: for blocking of translocating GAS: pre-treated 30 minutes with 2 mg/ml, compared to untreated monolayers
Protocol: Human keratinocytes were cultured on 3.0 μm filters to allow polarization and establishment of functional intercellular tight junctions. Cells were infected as described previously with wild-type GAS, strain 950771. To assess the ability of exogenously added HA to inhibit the translocation of GAS through the keratinocyte monolayer, cells were pre-treated for 30 minutes with either 2 mg/ml of hyaluronic acid (HA) or another acidic polysaccharide, alginate (AL), at the same concentration. Aliquots of media from the lower chamber of infected keratinocyte monolayers were cultured on blood agar plates at 1 and 2 hours after inoculation with bacteria to assess the number of translocating bacteria. […] In contrast only 20% and 25% of the wild-type bacteria were blocked by AL at 1 and 2 hours, respectively.
(§1) GAS strains were 950771, an M-type 3 strain originally isolated from a child with necrotizing fasciitis, and 188, an isogenic acapsular mutant derived from 950771 (Ashbaugh, C. D., et al., (1998) J. Clin. Invest. 102, 550-560). Bacteria were cultured in Todd Hewitt broth (Difco, Sparks, Md.) to early exponential phase. For preparation of polarized keratinocyte monolayers, human squamous cell carcinoma cell line, SCC13, derived from cheek epidermis (Cline, P. R. & Rice, R. H. (1983) Cancer Res. 43, 3203-3207) was cultured to confluence in serum-free keratinocyte medium (Gibco BRL, Rockville, Md.) supplemented with 50 μg/ml bovine pituitary extract, 0.1 ng/ml epidermal growth factor and 0.3 mM calcium chloride (c-SFM). Certain experiments were performed also using cell monolayers prepared from OKP7 primary human keratinocytes (Crowe et al. (1991) Differentiation 48, 199-208). Keratinocytes were seeded at 5×10^5 cells per well onto polycarbonate Transwell membrane supports (12-well plates, 3.0 μm pore size; Costar, Corning, N.Y.) and cultured for 6-10 days at 37° C. with 5% CO2 in c-SFM, with daily medium changes. Once confluent, the integrity of the monolayer was assessed routinely by measuring permeability to sodium fluorescein (Tchao, R. (1988) Alternative Methods in Toxicology (eds. Goldberg, A. M.) 271-283 (Ann Liebert, N.Y.) and, in some experiments, by measuring transepithelial electrical resistance (McNamara, B. P., et al. (2001) J Clin Invest 107, 621-9).
Keratinocyte monolayers on Transwells were inoculated with GAS at a multiplicity of infection of 10 per keratinocyte. Monolayers were incubated at 37° C. with 5% CO2. The keratinocyte medium in the upper chamber was replaced two hours after adding GAS, and the Transwell inserts containing the keratinocytes were moved to new wells containing fresh medium every 2 hours to prevent overgrowth of translocated bacteria. Translocation was assessed by quantitative cultures of medium from the lower chamber at 2 hour intervals.
As a model of the movement of GAS from the pharyngeal mucosa or skin surface into underlying tissue, GAS translocation was studied in vitro through keratinocyte monolayers. Two hours after inoculation onto the surface of a confluent keratinocyte monolayer, wild-type GAS was detected in the culture medium below the membrane support, indicating migration of the organisms through the monolayer. At each of several intervals after inoculation, approximately 20 to 100 times as many GAS were recovered below monolayers inoculated with wild-type GAS compared to those inoculated with the acapsular mutant strain.(Figure 12a). […] Compared to wild-type GAS strain 950771, the efficiency of translocation was similar for wild-type GAS strains 87-282, a highly encapsulated M-type 18 strain, and for DLS003, a poorly encapsulated M-type 3 strain. Translocation of wild-type GAS was reduced by 78% at 1 hour in experiments in which the keratinocyte monolayers were pretreated with monoclonal antibody IM7.8.1 to block interaction of the GAS capsule with CD44 . […]

[3] = test system: GAS; test: GAS translocation through abraded human skin equivalent; assay type: cell-based, Streptococcus pyogenes; details: pre-treated at 2 mg/ml for 1 hour; 4 hour infection period
Protocol: To examine GAS translocation in a model system similar to normal human skin, we utilized pseudo-organ cultures of human skin equivalent. This material is made by constructing a “dermis” that consists of human fibroblasts cultured in a collagen matrix; human foreskin keratinocytes are seeded on top of the dermal equivalent and cultured under conditions that promote differentiation into a stratified squamous epithelium with a stratum comeum. The histology of the human skin equivalent is very similar to that of normal human skin except for the absence of non-keratinocyte elements such as blood vessels and hematopoietic cells, nerves, and hair follicles. Since intact human skin is highly resistant to GAS infection, we simulated minor trauma to the superficial epidermis by abrading the surface of the skin equivalent with a cytology brush to introduce breaks in the stratum corneum. GAS were inoculated onto the surface of abraded skin equivalent that had either been pre-treated with nothing, HA, or AL at 2 mg/ml for 1 hour and translocation through the tissue was monitored by culture of GAS from the basal surface of the skin equivalent at intervals. As depicted in FIG. 10, HA inhibited translocation GAS by 91% (solid bars). In comparison the AL control prevented only 14% of bacteria from translocating through the skin equivalent during the 4 hour infection period. […]

[4] = test system: human keratinocytes; test: Immunofluorescent staining of ZO-1 and E-cadherin at intercellular junctions of keratinocytes exposed to GAS; assay type: cell-based; details: pretreatment of keratinocytes; wild-type GAS
Protocol: Keratinocyte monolayers were fixed with 4% paraformaldehyde in phosphate buffered saline (PBS), washed, permeabilized with 0.1% Triton X-100 in PBS, then incubated with 0.5% bovine serum albumin in PBS to block non-specific binding sites prior to antibody staining. Primary antibodies included rabbit IgG antibody to GAS group A carbohydrate (ImmuCell, Portland, Me.) at 5 μg/ml, rat monoclonal anti-mouse CD44 (clone IM7.8. 1) (Schrager, H. M., et al., (1998) J. Clin. Invest. 101, 1708-1716) at 15 μg/ml, goat IgG anti-ezrin at 2 μg/ml (Santa Cruz Biotechnology, Santa Cruz, Calif.), goat IgG anti-Rac1 at 2 μg/ml (Santa Cruz Biotechnology), mouse anti-phosphotyrosine at 2 μg/ml (PY-Plus, Zymed Laboratories, Inc., San Francisco, Calif.), rabbit anti-ZO-1 at 2 μg/ml (Zymed), goat anti-E-cadherin at 2 μg/ml (Santa Cruz Biotechnology), and mouse anti-myc monoclonal antibody 9E10 (Santa Cruz Biotechnology). Secondary antibodies included, as appropriate, Texas red- or Alexa 660-conjugated anti-rabbit IgG (Molecular Probes, Eugene, Oreg.), Alexa 568-conjugated anti-rabbit, anti-goat, or anti-rat IgG (Molecular Probes), and FITC-conjugated anti-goat or anti-mouse IgG (Sigma), each diluted 1:250 in 0.5% BSA/PBS. Cellular actin was labeled with 165 nm phalloidin conjugated to Oregon green 514 or to Alexa 488 (Molecular Probes). […]

[5] = test system: human keratinocytes; test: Confocal microscopy of actin projections / lamellipodia in keratinocytes exposed to wild-type GAS; assay type: cell-based; details: incubation of keratinocytes with inhibitor
Protocol: as §1, with “Keratinocytes were seeded at 5×10^5 cells per well onto polycarbonate Transwell membrane supports (12-well plates, 3.0 μm pore size; Costar, Corning, N.Y.) and cultured for 6-10 days at 37° C. with 5% CO2 in c-SFM, with daily medium changes.” left out, “621-9). […]” for “621-9).”

Compound: alginic acid
- effect on GAS attachment to PAM2.12 [1]: no effect
- blocking of translocating GAS ([2]; 1 hour after inoculation): 20%
- blocking of translocating GAS ([2]; 2 hours after inoculation): 25%
- inhibition of translocation of GAS through skin equivalent [3]: 14%

Compound: O=c1c(-c2ccc(O)cc2)coc2cc(O)cc(O)c12 [genistein]
- redistribution (loss) of ZO-1 and E-cadherin from intercellular junctions [4]: prevented
- formation of lamellipodia in response to GAS [5]: inhibit formation of lamellipodia
- reduction of maximum number of translocated GAS ([2]; 250 μM, at 4 hours): approximately 80%
- earliest detectable translocation of wild-type GAS ([2]; 250 μM, delayed from 30 min without inhibitor): 1 h
